Test results taken from patent US20260083126A1, “ANTIMICROBIAL COMPOSITIONS” (AHV International B.V., priority 2022, published 2026).

Tested on: AMR Staphylococcus aureus LUH14616 persisters
Assay: Anti-persister experiment, antibiotics-exposed mature biofilm
Type: cell-based
Settings: after 3 days rifampicin and ciprofloxacin, 24 hrs exposure, FIG. 25
Method: Experimental design. The capacity of AM-2 (Bis(4-chlorophenyl) disulfide) and AM-8 to reduce bacterial counts in mature biofilms was assessed as described earlier (Scheper et al (2021) Scheper H, Wubbolts J M, Verhagen J A M, de Visser A W, van der Wal RJJP, Visser L G, de Boer M J G, and Nibbering P H. SAAP-148 eradicates MRSA persisters within mature biofilm models simulating prosthetic joint infection. Front. Microbiol. 12:625952. Doi: 10.3389/fmicb.2021.625952. eCollection 2021) with one modification, i.e., the biofilms were exposed daily to the compounds for up to 4 consecutive days. Briefly, antimicrobial resistant (AMR) Staphylococcus aureus LUH14616 were cultured to mid-log phase in tryptic soy broth (TSB; Oxoid Ltd, Basingstoke, UK) at 37° C. and 200 rpm, centrifuged for 10 min at 3,000 rpm and then resuspended in brain heart infusion broth (BHI; Oxoid Ltd, Basingstoke, UK). Next, approximately 1×10^7 CFU bacteria in BHI were cultured in a 96-well flat-bottom polystyrene microplate sealed with breathable seal for 7 days. […] To take possible slow-growing bacteria into account we analyzed the bacterial plates again after a week. Results are expressed as the number of surviving bacteria (CFU/ml).

Clc1ccc(SSc2ccc(Cl)cc2)cc1 [Bis (4-chlorophenyl) disulfide, Bis(4-chlorophenyl) disulfide]
effect on persisters within antibiotics-exposed mature biofilm: at the highest dose was effectively against persisters
